Source: ChEMBL document CHEMBL5584201, “Amphiphilic tribasic galactosamines potentiate rifampicin in Gram-negative bacteria at low Mg++/Ca++concentrations” (Bioorg Med Chem Lett, 2024)
Values after ≈ are worked out from the molar mass of the structure shown.

Experiments:
[1] = test system: Escherichia coli; assay: Potentiation of rifampicin-induced antibacterial activity against Escherichia coli ATCC 25922 assessed as fold change in rifampicin MIC at 16 microg/ml in high concentration of Ca++ and Mg++ containing media by Mueller-Hinton broth based assay; format: functional; details: dose 16 µg/ml
[2] = test system: Acinetobacter baumannii; assay: Potentiation of rifampicin-induced antibacterial activity against multidrug resistant Acinetobacter baumannii LAC-4 assessed as fold change in rifampicin MIC at 1/4 MIC in low salt containing media by Mueller-Hinton broth based assay; format: functional
[3] = test system: Acinetobacter baumannii; assay: Potentiation of rifampicin-induced antibacterial activity against multidrug resistant Acinetobacter baumannii AB027 assessed as fold change in rifampicin MIC at 1/4 MIC in low salt containing media by Mueller-Hinton broth based assay; format: functional
[4] = test system: Acinetobacter baumannii; assay: Potentiation of rifampicin-induced antibacterial activity against Acinetobacter baumannii 92247 assessed as fold change in rifampicin MIC at 2 to 8 microg/ml in high concentration of Ca++ and Mg++ containing media by Mueller-Hinton broth based assay; format: functional; details: dose 2-8 µg/ml
[5] = test system: Acinetobacter baumannii; assay: Potentiation of rifampicin-induced antibacterial activity against Acinetobacter baumannii ATCC 17978 assessed as fold change in rifampicin MIC at 2 to 8 microg/ml in high concentration of Ca++ and Mg++ containing media by Mueller-Hinton broth based assay; format: functional; details: dose 2-8 µg/ml
[6] = test system: Escherichia coli; assay: Potentiation of rifampicin-induced antibacterial activity against Escherichia coli clinical isolate 94474 assessed as fold change in rifampicin MIC at 1/4 MIC in low salt containing media by Mueller-Hinton broth based assay; format: functional
[7] = test system: Escherichia coli; assay: Antibacterial activity against Escherichia coli […] in high concentration of Ca++ and Mg++ containing media by Mueller-Hinton broth based assay; format: functional
[8] = test system: Acinetobacter baumannii; assay: Antibacterial activity against Acinetobacter baumannii ATCC 17978 in low salt containing media by Mueller-Hinton broth based assay; format: functional
[9] = test system: Acinetobacter baumannii; assay: Potentiation of rifampicin-induced antibacterial activity against multidrug resistant Acinetobacter baumannii clinical isolate 110193 assessed as fold change in rifampicin MIC at 1/4 MIC in low salt containing media by Mueller-Hinton broth based assay; format: functional
[10] = test system: Acinetobacter baumannii; assay: Potentiation of rifampicin-induced antibacterial activity against Acinetobacter baumannii ATCC 17978 assessed as rifampicin MIC at 16 microg/ml in high concentration of Ca++ and Mg++ containing media by Mueller-Hinton broth based assay; format: functional; details: dose 16 µg/ml
[11] = test system: Escherichia coli; assay: Antibacterial activity against Escherichia coli ATCC 25922 in high concentration of Ca++ and Mg++ containing media by Mueller-Hinton broth based assay; format: functional
[12] = test system: Escherichia coli; assay: Antibacterial activity against Escherichia coli ATCC 25922 in low salt containing media by Mueller-Hinton broth based assay; format: functional
[13] = test system: Escherichia coli; assay: Potentiation of rifampicin-induced antibacterial activity against Escherichia coli ATCC 25922 assessed as fold change in rifampicin MIC in low salt containing media by Mueller-Hinton broth based assay; format: functional
[14] = test system: Escherichia coli; assay: Potentiation of rifampicin-induced antibacterial activity against Escherichia coli ATCC 25922 assessed as rifampicin MIC in low salt containing media by Mueller-Hinton broth based assay; format: functional
[15] = test system: Pseudomonas aeruginosa; assay: Antibacterial activity against Pseudomonas aeruginosa PAO1 in high concentration of Ca++ and Mg++ containing media by Mueller-Hinton broth based assay; format: functional
[16] = Cytotoxicity against human HepG2 cells assessed as cell viability at 9 uM relative to control; format: toxicity, cell-based; details: read-out: Activity
[17] = test system: Acinetobacter baumannii; assay: Potentiation of rifampicin-induced antibacterial activity against Acinetobacter baumannii ATCC 17978 assessed as rifampicin MIC in low salt containing media by Mueller-Hinton broth based assay; format: functional
[18] = test system: Escherichia coli; assay: Potentiation of rifampicin-induced antibacterial activity against Escherichia coli […] assessed as rifampicin MIC at 16 microg/ml in high concentration of Ca++ and Mg++ containing media by Mueller-Hinton broth based assay; format: functional; details: dose 16 µg/ml
[19] = test system: Escherichia coli; assay: Potentiation of rifampicin-induced antibacterial activity against Escherichia coli […] assessed as fold change in rifampicin MIC at 16 microg/ml in high concentration of Ca++ and Mg++ containing media by Mueller-Hinton broth based assay; format: functional; details: dose 16 µg/ml
[20] = test system: Acinetobacter baumannii; assay: Antibacterial activity against Acinetobacter baumannii ATCC 17978 in high concentration of Ca++ and Mg++ containing media by Mueller-Hinton broth based assay; format: functional
[21] = Cytotoxicity against HEK293 cells assessed as cell viability at 9 uM relative to control; format: toxicity, cell-based; details: human, read-out: Activity
[22] = test system: Pseudomonas aeruginosa; assay: Antibacterial activity against Pseudomonas aeruginosa PA262 in high concentration of Ca++ and Mg++ containing media by Mueller-Hinton broth based assay; format: functional
[23] = test system: Acinetobacter baumannii; assay: Potentiation of rifampicin-induced antibacterial activity against Acinetobacter baumannii ATCC 17978 assessed as fold change in rifampicin MIC in low salt containing media by Mueller-Hinton broth based assay; format: functional
[24] = test system: Pseudomonas aeruginosa; assay: Potentiation of rifampicin-induced antibacterial activity against Pseudomonas aeruginosa PAO1 assessed as rifampicin MIC at 2 to 8 microg/ml in high concentration of Ca++ and Mg++ containing media by Mueller-Hinton broth based assay; format: functional; details: dose 2-8 µg/ml
[25] = test system: Escherichia coli; assay: Potentiation of rifampicin-induced antibacterial activity against Escherichia coli clinical isolate 107115 assessed as fold change in rifampicin MIC at 1/4 MIC in low salt containing media by Mueller-Hinton broth based assay; format: functional
[26] = test system: Escherichia coli; assay: Potentiation of rifampicin-induced antibacterial activity against Escherichia coli clinical isolate 94393 assessed as fold change in rifampicin MIC at 1/4 MIC in low salt containing media by Mueller-Hinton broth based assay; format: functional
[27] = test system: Pseudomonas aeruginosa; assay: Antibacterial activity against Pseudomonas aeruginosa PAO1 in low salt containing media by Mueller-Hinton broth based assay; format: functional
[28] = test system: Acinetobacter baumannii; assay: Antibacterial activity against Acinetobacter baumannii 92247 in high concentration of Ca++ and Mg++ containing media by Mueller-Hinton broth based assay; format: functional
[29] = test system: Escherichia coli; assay: Potentiation of rifampicin-induced antibacterial activity against Escherichia coli […] assessed as rifampicin MIC at 2 to 8 microg/ml in high concentration of Ca++ and Mg++ containing media by Mueller-Hinton broth based assay; format: functional; details: dose 2-8 µg/ml
[30] = test system: Pseudomonas aeruginosa; assay: Potentiation of rifampicin-induced antibacterial activity against Pseudomonas aeruginosa PAO1 assessed as rifampicin MIC in low salt containing media by Mueller-Hinton broth based assay; format: functional
[31] = test system: Escherichia coli; assay: Potentiation of rifampicin-induced antibacterial activity against Escherichia coli ATCC 25922 assessed as rifampicin MIC at 16 microg/ml in high concentration of Ca++ and Mg++ containing media by Mueller-Hinton broth based assay; format: functional; details: dose 16 µg/ml
[32] = test system: Escherichia coli; assay: Potentiation of rifampicin-induced antibacterial activity against Escherichia coli ATCC 25922 assessed as fold change in rifampicin MIC at 2 to 8 microg/ml in high concentration of Ca++ and Mg++ containing media by Mueller-Hinton broth based assay; format: functional; details: dose 2-8 µg/ml
[33] = test system: Escherichia coli; assay: Potentiation of rifampicin-induced antibacterial activity against Escherichia coli ATCC 25922 assessed as rifampicin MIC at 2 to 8 microg/ml in high concentration of Ca++ and Mg++ containing media by Mueller-Hinton broth based assay; format: functional; details: dose 2-8 µg/ml
[34] = test system: Acinetobacter baumannii; assay: Potentiation of rifampicin-induced antibacterial activity against Acinetobacter baumannii 92247 assessed as rifampicin MIC at 2 to 8 microg/ml in high concentration of Ca++ and Mg++ containing media by Mueller-Hinton broth based assay; format: functional; details: dose 2-8 µg/ml

CCCCCCCCO[C@@H]1O[C@H](CN)[C@H](N)[C@H](OCc2ccc3ccccc3c2)[C@H]1N
fold change (FC) [1]: 1
fold change (FC) [2]: 64
fold change (FC) [3]: 64
fold change (FC) [4]: 2
fold change (FC) [5]: 1
fold change (FC) [6]: 64
MIC [7]: 64 µg/mL (≈ 149 µM)
MIC [8]: 16 µg/mL
fold change (FC) [9]: 64
MIC [10]: 16 µg/mL
MIC [11]: 64 µg/mL (≈ 149 µM)
MIC [12]: 8 µg/mL
fold change (FC) [13]: 128
MIC [14]: 2 µg/mL
MIC [15]: > 128 µg/mL
viability at 9 µM [16]: 85%
MIC [17]: 4 µg/mL
MIC [18]: 16 µg/mL
fold change (FC) [19]: 8
MIC [20]: ≥ 64 µg/mL
viability at 9 µM [21]: 46.4%
MIC [22]: > 128 µg/mL
fold change (FC) [23]: 256
MIC [24]: 8 µg/mL
fold change (FC) [25]: 64
fold change (FC) [26]: 64
MIC [27]: 32 µg/mL
MIC [28]: ≥ 64 µg/mL
MIC [29]: 2 µg/mL
MIC [30]: 8 µg/mL
MIC [31]: 16 µg/mL
fold change (FC) [32]: 1
MIC [33]: 2 µg/mL
MIC [34]: 4 µg/mL
